In ChEMBL document CHEMBL5537151, “Design, synthesis and bioactivity evaluation of novel fusion peptides and their CPT conjugates inducing effective anti-tumor responses on HER2 positive tumors” (Eur J Med Chem, 2024):
The source made the active and inactive calls. The rule behind the calls is not given here.

Legend:
[1] = Toxicity in nude mouse xenografted with human SK-BR-3 cells assessed as change in globulin level at 8 umol/kg, iv administered every 3 days for 14 days in presence of SMAC peptide; type: organism-based; details: in vivo, 336 h, dose 8 µmol/kg, time 14 day
[2] = system: SK-BR-3; assay: Induction of apoptosis in human SK-BR-3 cells assessed as early apoptotic cells at 1 uM incubated for 24 hrs by Annexin V-FITC/PI staining based flow cytometry analysis (reference value: 2.80%); type: functional
[3] = system: SK-BR-3; assay: Induction of apoptosis in human SK-BR-3 cells assessed as downregulation of cIAP1 protein expression incubated for 24 hrs in presence of SMAC peptide by Western blot analysis; type: functional, cell-based
[4] = system: SK-BR-3; assay: Induction of apoptosis in human SK-BR-3 cells assessed as live cells at 1 uM incubated for 24 hrs by Annexin V-FITC/PI staining based flow cytometry analysis (reference value: 94.6%); type: functional
[5] = Toxicity in nude mouse xenografted with human SK-BR-3 cells assessed as change in alkaline phosphatase level at 8 umol/kg, iv administered every 3 days for 14 days in presence of SMAC peptide; type: organism-based; details: in vivo, 336 h, dose 8 µmol/kg, time 14 day
[6] = Toxicity in nude mouse xenografted with human SK-BR-3 cells assessed as change in alkaline phosphatase level at 8 umol/kg, iv administered every 3 days for 14 days; type: organism-based; details: in vivo, 336 h, dose 8 µmol/kg, time 14 day
[7] = Toxicity in nude mouse xenografted with human SK-BR-3 cells assessed as increase in ALT level at 8 umol/kg, iv administered every 3 days for 14 days in presence of SMAC peptide; type: organism-based; details: in vivo, 336 h, dose 8 µmol/kg, time 14 day
[8] = Toxicity in nude mouse xenografted with human SK-BR-3 cells assessed as change in albumin level at 8 umol/kg, iv administered every 3 days for 14 days; type: organism-based; details: in vivo, 336 h, dose 8 µmol/kg, time 14 day
[9] = system: SK-BR-3; assay: Induction of apoptosis in human SK-BR-3 cells assessed as downregulation of XIAP protein expression incubated for 24 hrs by Western blot analysis; type: functional, cell-based
[10] = system: SK-BR-3; assay: Antitumor activity against human SK-BR-3 cells xenografted in nude mouse assessed as inhibition of tumor growth at 8 umol/kg, iv administered every 3 days for 14 days with SMAC peptide and measured every 2 days by vernier caliper analysis; type: functional, organism-based; details: dose 8.0 µmol/kg, time 14.0 day
[11] = system: SK-BR-3; assay: Induction of apoptosis in human SK-BR-3 cells assessed as necrotic cells at 1 uM incubated for 24 hrs by Annexin V-FITC/PI staining based flow cytometry analysis (reference value: 1.49%); type: functional
[12] = Toxicity in nude mouse xenografted with human SK-BR-3 cells assessed as change in globulin level at 8 umol/kg, iv administered every 3 days for 14 days; type: organism-based; details: in vivo, 336 h, dose 8 µmol/kg, time 14 day
[13] = Toxicity in nude mouse xenografted with human SK-BR-3 cells assessed as change in total protein level at 8 umol/kg, iv administered every 3 days for 14 days in presence of SMAC peptide; type: organism-based; details: in vivo, 336 h, dose 8 µmol/kg, time 14 day
[14] = Toxicity in nude mouse xenografted with human SK-BR-3 cells assessed as increase in AST level at 8 umol/kg, iv administered every 3 days for 14 days in presence of SMAC peptide; type: organism-based; details: in vivo, 336 h, dose 8 µmol/kg, time 14 day
[15] = system: SK-BR-3; assay: Induction of apoptosis in human SK-BR-3 cells assessed as live cells at 1 uM incubated for 24 hrs in presence of SMAC peptide by Annexin V-FITC/PI staining based flow cytometry analysis (reference value: 94.6%); type: functional
[16] = Toxicity in nude mouse xenografted with human SK-BR-3 cells assessed as increase in ALT level at 8 umol/kg, iv administered every 3 days for 14 days; type: organism-based; details: in vivo, 336 h, dose 8 µmol/kg, time 14 day
[17] = system: SK-BR-3; assay: Antitumor activity against human SK-BR-3 cells xenografted in nude mouse assessed as inhibition of tumor growth at 8 umol/kg, iv administered every 3 days for 14 days and measured every 2 days by vernier caliper analysis; type: functional, organism-based; details: dose 8.0 µmol/kg, time 14.0 day
[18] = Toxicity in nude mouse xenografted with human SK-BR-3 cells assessed as increase in blood urea nitrogen level at 8 umol/kg, iv administered every 3 days for 14 days in presence of SMAC peptide; type: organism-based; details: in vivo, 336 h, dose 8 µmol/kg, time 14 day
[19] = Toxicity in nude mouse xenografted with human SK-BR-3 cells assessed as increase in creatinine level at 8 umol/kg, iv administered every 3 days for 14 days in presence of SMAC peptide; type: organism-based; details: in vivo, 336 h, dose 8 µmol/kg, time 14 day
[20] = system: SK-BR-3; assay: Induction of apoptosis in human SK-BR-3 cells assessed as downregulation of XIAP protein expression incubated for 24 hrs in presence of SMAC peptide by Western blot analysis; type: functional, cell-based
[21] = system: SK-BR-3; assay: Induction of apoptosis in human SK-BR-3 cells assessed as late apoptotic cells at 1 uM incubated for 24 hrs by Annexin V-FITC/PI staining based flow cytometry analysis (reference value: 1.11%); type: functional
[22] = system: SK-BR-3; assay: Induction of apoptosis in human SK-BR-3 cells assessed as downregulation of cIAP1 protein expression incubated for 24 hrs by Western blot analysis; type: functional, cell-based
[23] = Toxicity in nude mouse xenografted with human SK-BR-3 cells assessed as increase in AST level at 8 umol/kg, iv administered every 3 days for 14 days; type: organism-based; details: in vivo, 336 h, dose 8 µmol/kg, time 14 day
[24] = Toxicity in nude mouse xenografted with human SK-BR-3 cells assessed as change in total protein level at 8 umol/kg, iv administered every 3 days for 14 days; type: organism-based; details: in vivo, 336 h, dose 8 µmol/kg, time 14 day
[25] = Toxicity in nude mouse xenografted with human SK-BR-3 cells assessed as change in albumin level at 8 umol/kg, iv administered every 3 days for 14 days in presence of SMAC peptide; type: organism-based; details: in vivo, 336 h, dose 8 µmol/kg, time 14 day
[26] = system: SK-BR-3; assay: Induction of apoptosis in human SK-BR-3 cells assessed as late apoptotic cells at 1 uM incubated for 24 hrs in presence of SMAC peptide by Annexin V-FITC/PI staining based flow cytometry analysis (reference value: 1.11%); type: functional
[27] = system: SK-BR-3; assay: Induction of apoptosis in human SK-BR-3 cells assessed as early apoptotic cells at 1 uM incubated for 24 hrs in presence of SMAC peptide by Annexin V-FITC/PI staining based flow cytometry analysis (reference value: 2.80%); type: functional
[28] = system: SK-BR-3; assay: Induction of apoptosis in human SK-BR-3 cells assessed as necrotic cells at 1 uM incubated for 24 hrs in presence of SMAC peptide by Annexin V-FITC/PI staining based flow cytometry analysis (reference value: 1.49%); type: functional

**Q.** Which Activity [1] does the source give for CCC1(OC(=O)OCCSSC[C@@H](N)C(=O)N[C@@H](CC(N)=O)C(=O)N2CCC[C@H]2C(=O)N[C@@H](CC(N)=O)C(=O)N[C@@H](Cc2c[nH]c3ccccc23)C(=O)NCC(=O)N[C@@H](CCCNC(=N)N)C(=O)N[C@@H](CO)C(=O)N[C@@H](Cc2c[nH]c3ccccc23)C(=O)N[C@@H](Cc2ccc(O)cc2)C(=O)N[C@@H](CC(N)=O)C(=O)N[C@@H](CCC(N)=O)C(=O)N[C@@H](CCCNC(=N)N)C(=O)N[C@@H](Cc2ccccc2)C(=O)N[C@@H](CCCCN)C(=O)N[C@@H](CCCCN)C(N)=O)C(=O)OCc2c1cc1n(c2=O)Cc2cc3ccccc3nc2-1 (stereo partly drawn) here?
**A.** Non-Toxic

**Q.** And the Activity [2]?
**A.** 15.1%

**Q.** What about the Activity [3] of the same compound?
**A.** inactive

**Q.** And the Activity [4]?
**A.** 78.8%

**Q.** And the Activity [5]?
**A.** Non-Toxic

**Q.** And the Activity [6]?
**A.** Non-Toxic

**Q.** What about the Activity [7] of the same compound?
**A.** Toxic

**Q.** What about the Activity [8] of the same compound?
**A.** Non-Toxic

**Q.** What about the Activity [9] of the same compound?
**A.** Active

**Q.** What about the Activity [10] of the same compound?
**A.** Active

**Q.** What about the Activity [11] of the same compound?
**A.** 1.23%

**Q.** And the Activity [12]?
**A.** Non-Toxic

**Q.** What about the Activity [13] of the same compound?
**A.** Non-Toxic

**Q.** And the Activity [14]?
**A.** Toxic

**Q.** What about the Activity [15] of the same compound?
**A.** 74.9%

**Q.** What about the Activity [16] of the same compound?
**A.** Toxic

**Q.** What about the Activity [17] of the same compound?
**A.** Active

**Q.** And the Activity [18]?
**A.** Toxic

**Q.** What about the Activity [19] of the same compound?
**A.** Toxic

**Q.** What about the Activity [20] of the same compound?
**A.** Active

**Q.** And the Activity [21]?
**A.** 4.89%

**Q.** What about the Activity [22] of the same compound?
**A.** inactive

**Q.** And the Activity [23]?
**A.** Toxic

**Q.** And the Activity [24]?
**A.** Non-Toxic

**Q.** And the Activity [25]?
**A.** Non-Toxic

**Q.** What about the Activity [26] of the same compound?
**A.** 6.9%

**Q.** And the Activity [27]?
**A.** 16.8%

**Q.** And the Activity [28]?
**A.** 1.34%
